The text below walks through data of patent US12071469B2, “Peptide compounds for suppressing inflammation” (Duke University, priority 2011, dated 2024).

Data set [1] relates to mice with traumatic brain injury. The data set can be described thus: Rotorod vestibulomotor function after traumatic brain injury. It counts as in vivo, mouse. The following applies: 0.05 mg/kg iv at 2 h and 6 h after traumatic brain injury. As for the experimental part: An experimental murine model for traumatic brain injury was developed. Laskowitz, et al. (2010) J. Neurotrauma, 27:1983-95. Male mice (age 12-14 weeks) were anesthetized with 4.3% isoflurane in oxygen in an anesthesia induction box for 90 seconds. The trachea was intubated and the lungs mechanically ventilated with 1.4% isoflurane in a 50/50 mixture of oxygen and nitrogen. Body temperature was maintained at 37° C. using surface heating/cooling. The top of the skull was exposed by a midline incision to identify anatomical landmarks, and a concave 3-mm metallic disc was secured to the skull surface with an adhesive, directly midline and just caudal to the bregma. The disc diffused the energy of impact and reduced the incidence of depressed skull fracture to less than 10%. After general anesthesia, mice were positioned in a stereotactic device and the skull was exposed. A pneumatic impactor (diameter: 2.0 mm; available from Air-Power, Inc.) discharged at 6.8±0.2 m/s with a head displacement of 3 mm was used to deliver a single midline impact to the disc surface.
An experimental procedure for measuring neurological deficits was developed. An automated rotorod (available from Ugo Basile North America, Inc.) was used to assess vestibulomotor function. On the day before experimental induction of a neurological condition or injury (such as, for example, traumatic brain injury or intracerebral hemorrhage as described above), mice under went two consecutive conditioning trials at a set rotational speed (16 revolutions per minute) for 60 seconds followed by three additional trials with an accelerating rotational speed. The average time to fall from the rotating cylinder in the latter three trials was recorded as baseline latency. After injury, mice under went consecutive daily testing with three trials of accelerating rotational speed (intertribal interval of 15 minutes). Average latency to fall from the rod was recorded, and mice unable to grip the rod were scored with a latency of 0 seconds.
Groups of mice received either an ApoE mimetic peptide (SEQ ID NO:3; 0.05 mg/kg or 0.2 mg/kg) or carrier (saline) by intravenous tail vein injection at 2 hours and again at 6 hours after traumatic brain injury induced as described in Example 3. Each mouse was tested for vestibulomotor function by rotorod latency measured before and after injury, as described in Example 3.
Groups of mice received either an ApoE mimetic peptide (SEQ ID NO:4; 0.05 mg/kg) or carrier (saline) by intravenous tail vein injection at 2 hours and again at 6 hours after traumatic brain injury induced as described in Example 3. Each mouse was tested for vestibulomotor function by rotorod latency measured before and after injury, as described in Example 3. […]

Data set [2] can be described thus: VSRRR quantitation in mouse plasma by LC/SIM/MS after intravenous dosing. It counts as in vivo. The following applies: IV single dose 0.8 mg/kg. The procedure:
The amount of the ApoE mimetic peptide VSRRR (SEQ ID NO:4) in blood plasma and CNS was determined as follows:
VSRRR Quantitation in Mouse Plasma Using LC/Selected Ion Monitoring (SIM)/MS
48 μL aliquots of mouse plasma were measured into the wells of a 2 mL 96-well plate. 6 μL of a stable isotope labeled (SIL) form of the VSRRR peptide (“VSRRR[10]”; SEQ ID NO:4) (5 picomoles/μL in 50 mM ammonium bicarbonate, pH 8, buffer) was added. 6 μL of a synthetic form of the VSRRR peptide (“VSRRR”; SEQ ID NO:4) in 50 mM Ammonium bicarbonate was added for standards and quality controls (QCs) and an equivalent volume of 50 mM ammonium bicarbonate was added to all wells containing mouse PK samples. 1140 μL of 50 mM ammonium formate, pH 10, was added for a final volume of 1200 μL. Salts and proteins were removed using OASIS® HLB Solid Phase Extraction (SPE) protocol as follows: • 1. 500 μL methanol (MeOH) through each well×1. • 2. 500 μL 25% acetonitrile (ACN)/1% trifluoroacetic acid (TFA)×1 (as pre-elution). • 3. 500 μL MeOH×1 • 4. 500 μL 50 mM ammonium formate×2 • 5. 1 mL of each sample mixture was pipetted directly onto an OASIS® HLB plate (hydrophilic-lipophilic-balanced reversed-phase sorbent; Waters Corp.) into a corresponding well and slowly vacuumed through • 6. 500 μL 50 mM ammonium formate×1 • 7. 500 μL 10% ACN/50 mM ammonium formate×2 • 8. 500 μL 25% ACN/50 mM ammonium formate×1 • 9. Removed plate collecting washes/flowthrough, and put in collection plate • 10. Eluted with 100 μL 25% ACN/1% TFA×3, eluting with vacuum slowly. The final eluate should be approximately 300 μL.
The SPE eluate was dried using a vacuum centrifuge. The sample was reconstituted in 50 μL of buffer containing 1% acetonitrile (ACN), 0.1% trifluoroacetic acid (TFA), and 0.02% heptafluorobutyric acid (HFBA). Two microliters of reconstituted sample was analyzed by nanoscale capillary LC coupled to a high resolution, accurate mass tandem mass spectrometer. Specifically, the electrospray ionization source with NanoLockSpray™ (Waters Corp.) and nanoAcquity UPLC® system (Waters Corp.) were used with a nanoscale LC column (1.7 μm BEH130 C18 150 μm ID×100 mm long; Waters Corp.), 10-min gradient of 3% to 19% ACN with 0.1% formic acid (mobile phase A=0.1% formic acid/0.001% HFBA) with a total LC run time of 16.5 minutes, flow rate=1.8 μL/min and 35° C. column temperature. A SYNAPT™ G1 HDMS™ high resolution mass spectrometer (Waters Corp.) was used. Full Scan MS data was obtained over the mass region of 50-4000 Da using an Enhanced Duty Cycle scan function at 360 Da.
VSRRR and VSRRR[10] amounts were quantitated by measuring the area under the curve (AUC) of the Selected Ion Chromatograms of the doubly charged ions at high resolution (m/z 357.7 and 362.7). The final VSRRR quantitation amount was determined using the ratio of the AUCs (VSRRR/VSRRR[10]). The ratios from 5 animals were averaged per time point and calibration standards were used to generate a standard curve. Duplicate aliquots of QC samples were analyzed by LC/MS in triplicate to determine analytical reproducibility.
The lower level of quantitation (LLOQ) is indicated.

For Ac-VSRRR-NH2 [VR-55, Ac-VSRRR-NH2], in data set [1], the “durability of effect on rotorod latency” value is “durable through the five-day testing period”. Besides, in data set [1] (FIG. 3), the “vestibulomotor performance (rotorod latency) compared to carrier” value was “improved vestibulomotor performance”. Also, the “Ratio Light/Heavy across 5 animals” value in data set [2] (1 min) was determined as 0.079; in data set [2] (3 min), 0.134; in data set [2] (5 min) it was 0.077; in data set [2] (10 min) it was 0.058; in data set [2] (15 min), 0.044; in data set [2] (30 min), 0.016. For the same substance, in data set [2] (60 min), the “Ratio Light/Heavy across 5 animals” value is reported as 0.012. In addition, the “amount of peptide in plasma” value is 32.2 fmol/µL in data set [2] (1 min); 51.8 fmol/µL in data set [2] (3 min); 31.7 fmol/µL in data set [2] (5 min); 24.9 fmol/µL in data set [2] (10 min); 19.6 fmol/µL in data set [2] (15 min); 9.9 fmol/µL in data set [2] (30 min). Moreover, the “amount of peptide in plasma” value in data set [2] (60 min) amounted to 8.5 fmol/µL.
